Values quoted from earlier work as cited in paper PMC3433420 (PLoS ONE, 2012).
Read-outs that look alike come from different tables or passages of the source.

Molecular target: SH2 and PTB domains
Conditions: cited from earlier work
Description: Supplement pone.0044471.s022.xlsx, sheet "Most recent PM interactions" | column: Kd || Supplement pone.0044471.s022.xlsx, sheet "All original PM interactions" | column: Kd

[1] = protein ABL2, ref Jones et al. 2006 / Kaushansky et al. Mol Biosys 2008 / Kaushansky et al. Chem and Biol 2008
[2] = protein BLK, ref Jones et al. 2006 / Kaushansky et al. Mol Biosys 2008 / Kaushansky et al. Chem and Biol 2008
[3] = protein GRB10, ref Jones et al. 2006 / Kaushansky et al. Mol Biosys 2008 / Kaushansky et al. Chem and Biol 2008
[4] = protein ITK, ref Jones et al. 2006 / Kaushansky et al. Mol Biosys 2008 / Kaushansky et al. Chem and Biol 2008
[5] = protein PIK3R1-NC, ref Jones et al. 2006 / Kaushansky et al. Mol Biosys 2008 / Kaushansky et al. Chem and Biol 2008
[6] = protein PIK3R3-NC, ref Jones et al. 2006 / Kaushansky et al. Mol Biosys 2008 / Kaushansky et al. Chem and Biol 2008
[7] = protein RASA1-N, ref Jones et al. 2006 / Kaushansky et al. Mol Biosys 2008 / Kaushansky et al. Chem and Biol 2008
[8] = protein RASA1-NC, ref Jones et al. 2006 / Kaushansky et al. Mol Biosys 2008 / Kaushansky et al. Chem and Biol 2008
[9] = protein SH2B3, ref Jones et al. 2006 / Kaushansky et al. Mol Biosys 2008 / Kaushansky et al. Chem and Biol 2008
[10] = protein SH2B, ref Jones et al. 2006 / Kaushansky et al. Mol Biosys 2008 / Kaushansky et al. Chem and Biol 2008
[11] = protein SH2D3C, ref Jones et al. 2006 / Kaushansky et al. Mol Biosys 2008 / Kaushansky et al. Chem and Biol 2008
[12] = protein SHC1-PTB, ref Jones et al. 2006 / Kaushansky et al. Mol Biosys 2008 / Kaushansky et al. Chem and Biol 2008
[13] = protein SHC2-PTB, ref Jones et al. 2006 / Kaushansky et al. Mol Biosys 2008 / Kaushansky et al. Chem and Biol 2008
[14] = protein SLA, ref Jones et al. 2006 / Kaushansky et al. Mol Biosys 2008 / Kaushansky et al. Chem and Biol 2008
[15] = protein SRC, ref Jones et al. 2006 / Kaushansky et al. Mol Biosys 2008 / Kaushansky et al. Chem and Biol 2008
[16] = protein SYK-NC, ref Jones et al. 2006 / Kaushansky et al. Mol Biosys 2008 / Kaushansky et al. Chem and Biol 2008
[17] = protein TNS4, ref Jones et al. 2006 / Kaushansky et al. Mol Biosys 2008 / Kaushansky et al. Chem and Biol 2008
[18] = protein YES1, ref Jones et al. 2006 / Kaushansky et al. Mol Biosys 2008 / Kaushansky et al. Chem and Biol 2008
[19] = Protein ABL2, most recent PM interactions, ref Jones et al. 2006 / Kaushansky et al. Mol Biosys 2008 / Kaushansky et al. Chem and Biol 2008
[20] = Protein PIK3R3-NC, most recent PM interactions, ref Jones et al. 2006 / Kaushansky et al. Mol Biosys 2008 / Kaushansky et al. Chem and Biol 2008
[21] = Protein SHC1-PTB, most recent PM interactions, ref Jones et al. 2006 / Kaushansky et al. Mol Biosys 2008 / Kaushansky et al. Chem and Biol 2008

## DSNFpYRALMDEEd [ErbB1 pY998, N-terminally rhodamine-labeled 13-mer phosphopeptide]
[1]
  Kd: 2 µM
[2]
  Kd: 0.19 µM
Protein FES, ref Jones et al. 2006 / Kaushansky et al. Mol Biosys 2008 / Kaushansky et al. Chem and Biol 2008
  Kd: 1.23 µM
[3]
  Kd: 2 µM
[4]
  Kd: 0.28 µM
Protein LCK, ref Jones et al. 2006 / Kaushansky et al. Mol Biosys 2008 / Kaushansky et al. Chem and Biol 2008
  Kd: 2 µM
[5]
  Kd: 0.24 µM
[6]
  Kd: 0.97 µM
Protein PTPN6-NC, ref Jones et al. 2006 / Kaushansky et al. Mol Biosys 2008 / Kaushansky et al. Chem and Biol 2008
  Kd: 2 µM
[7]
  Kd: 1.06 µM
[8]
  Kd: 1.38 µM
[9]
  Kd: 1.36 µM
[10]
  Kd: 2 µM
Protein SH2D2A, ref Jones et al. 2006 / Kaushansky et al. Mol Biosys 2008 / Kaushansky et al. Chem and Biol 2008
  Kd: 2 µM
[11]
  Kd: 2 µM
[12]
  Kd: 1.15 µM
[13]
  Kd: 0.98 µM
[14]
  Kd: 1.6 µM
Protein SOCS1, ref Jones et al. 2006 / Kaushansky et al. Mol Biosys 2008 / Kaushansky et al. Chem and Biol 2008
  Kd: 2 µM
Protein SOCS2, ref Jones et al. 2006 / Kaushansky et al. Mol Biosys 2008 / Kaushansky et al. Chem and Biol 2008
  Kd: 2 µM
[15]
  Kd: 1.14 µM
[16]
  Kd: 0.91 µM
[17]
  Kd: 2 µM
[18]
  Kd: 0.72 µM
Protein ZAP70-NC, ref Jones et al. 2006 / Kaushansky et al. Mol Biosys 2008 / Kaushansky et al. Chem and Biol 2008
  Kd: 1.65 µM

## HSTAVGNPEpYLNTVQPTd [ErbB1 1138]
[19]
  Kd: 0.12 µM
Protein GRB2, most recent PM interactions, ref Jones et al. 2006 / Kaushansky et al. Mol Biosys 2008 / Kaushansky et al. Chem and Biol 2008
  Kd: 0.42 µM
Protein ITK, most recent PM interactions, ref Jones et al. 2006 / Kaushansky et al. Mol Biosys 2008 / Kaushansky et al. Chem and Biol 2008
  Kd: 1.76 µM
Protein NCK2, most recent PM interactions, ref Jones et al. 2006 / Kaushansky et al. Mol Biosys 2008 / Kaushansky et al. Chem and Biol 2008
  Kd: 0.33 µM
Protein PIK3R1-NC, most recent PM interactions, ref Jones et al. 2006 / Kaushansky et al. Mol Biosys 2008 / Kaushansky et al. Chem and Biol 2008
  Kd: 1.57 µM
Protein PIK3R2-N, most recent PM interactions, ref Jones et al. 2006 / Kaushansky et al. Mol Biosys 2008 / Kaushansky et al. Chem and Biol 2008
  Kd: 0.76 µM
Protein PIK3R2-NC, most recent PM interactions, ref Jones et al. 2006 / Kaushansky et al. Mol Biosys 2008 / Kaushansky et al. Chem and Biol 2008
  Kd: 0.86 µM
Protein PIK3R3-N, most recent PM interactions, ref Jones et al. 2006 / Kaushansky et al. Mol Biosys 2008 / Kaushansky et al. Chem and Biol 2008
  Kd: 0.84 µM
[20]
  Kd: 1.69 µM
Protein RASA1-N, most recent PM interactions, ref Jones et al. 2006 / Kaushansky et al. Mol Biosys 2008 / Kaushansky et al. Chem and Biol 2008
  Kd: 0.39 µM
[21]
  Kd: 0.17 µM
Protein VAV2, most recent PM interactions, ref Jones et al. 2006 / Kaushansky et al. Mol Biosys 2008 / Kaushansky et al. Chem and Biol 2008
  Kd: 0.37 µM
Protein ZAP70-NC, most recent PM interactions, ref Jones et al. 2006 / Kaushansky et al. Mol Biosys 2008 / Kaushansky et al. Chem and Biol 2008
  Kd: 1.14 µM

## EDYEpYMNRQRDGd [ErbB3 pY1262, N-terminally rhodamine-labeled 13-mer phosphopeptide]
Protein PIK3R3-NC, original PM interactions, ref Jones et al. 2006 / Kaushansky et al. Chem and Biol 2008
  Kd: 2 µM
Protein PLCG2-NC, original PM interactions, ref Jones et al. 2006 / Kaushansky et al. Chem and Biol 2008
  Kd: 2 µM
Protein RASA1-NC, original PM interactions, ref Jones et al. 2006 / Kaushansky et al. Chem and Biol 2008
  Kd: 2 µM
Protein SLA, original PM interactions, ref Jones et al. 2006 / Kaushansky et al. Chem and Biol 2008
  Kd: 2 µM
Protein SOCS5, original PM interactions, ref Jones et al. 2006 / Kaushansky et al. Chem and Biol 2008
  Kd: 2 µM
Protein ABL2, ref Jones et al. 2006 / Kaushansky et al. Chem and Biol 2008
  Kd: 1.96 µM
Protein RASA1-N, ref Jones et al. 2006 / Kaushansky et al. Chem and Biol 2008
  Kd: 1.21 µM

## KGSTAENAEpYLRVAPQSd [ErbB1 1197]
[19]
  Kd: 0.21 µM
[20]
  Kd: 1.11 µM
[21]
  Kd: 0.32 µM

## STQRpYSADPTVFd [ErbB4 pY1128, N-terminally rhodamine-labeled 13-mer phosphopeptide]
Protein SRC, ref Kaushansky et al. Chem and Biol 2008
  Kd: 0.5 µM

## DNPDpYQQDFFPKd [ErbB1 pY1172, N-terminally rhodamine-labeled 13-mer phosphopeptide]
[1]
  Kd: 0.49 µM
Protein BCAR3, ref Jones et al. 2006 / Kaushansky et al. Mol Biosys 2008 / Kaushansky et al. Chem and Biol 2008
  Kd: 0.3 µM
[2]
  Kd: 0.75 µM
Protein CRK, ref Jones et al. 2006 / Kaushansky et al. Mol Biosys 2008 / Kaushansky et al. Chem and Biol 2008
  Kd: 0.41 µM
Protein FGR, ref Jones et al. 2006 / Kaushansky et al. Mol Biosys 2008 / Kaushansky et al. Chem and Biol 2008
  Kd: 0.55 µM
[3]
  Kd: 1.29 µM
Protein GRB14, ref Jones et al. 2006 / Kaushansky et al. Mol Biosys 2008 / Kaushansky et al. Chem and Biol 2008
  Kd: 1.25 µM
[4]
  Kd: 1.41 µM
Protein LYN, ref Jones et al. 2006 / Kaushansky et al. Mol Biosys 2008 / Kaushansky et al. Chem and Biol 2008
  Kd: 1.59 µM
Protein NCK2, ref Jones et al. 2006 / Kaushansky et al. Mol Biosys 2008 / Kaushansky et al. Chem and Biol 2008
  Kd: 0.38 µM
Protein PIK3R1-N, ref Jones et al. 2006 / Kaushansky et al. Mol Biosys 2008 / Kaushansky et al. Chem and Biol 2008
  Kd: 0.4 µM
[5]
  Kd: 0.55 µM
Protein PIK3R2-N, ref Jones et al. 2006 / Kaushansky et al. Mol Biosys 2008 / Kaushansky et al. Chem and Biol 2008
  Kd: 0.39 µM
Protein PIK3R2-NC, ref Jones et al. 2006 / Kaushansky et al. Mol Biosys 2008 / Kaushansky et al. Chem and Biol 2008
  Kd: 0.32 µM
[6]
  Kd: 0.85 µM
Protein PLCG2-N, ref Jones et al. 2006 / Kaushansky et al. Mol Biosys 2008 / Kaushansky et al. Chem and Biol 2008
  Kd: 0.84 µM
Protein PLCG2-NC, ref Jones et al. 2006 / Kaushansky et al. Mol Biosys 2008 / Kaushansky et al. Chem and Biol 2008
  Kd: 0.67 µM
[7]
  Kd: 1.14 µM
[8]
  Kd: 1.17 µM
[9]
  Kd: 1.6 µM
[10]
  Kd: 1.82 µM
[11]
  Kd: 1.91 µM
Protein SHB, ref Jones et al. 2006 / Kaushansky et al. Mol Biosys 2008 / Kaushansky et al. Chem and Biol 2008
  Kd: 1.79 µM
[12]
  Kd: 0.04 µM
[13]
  Kd: 1.31 µM
[14]
  Kd: 2 µM
[15]
  Kd: 0.47 µM
Protein SUPT6H, ref Jones et al. 2006 / Kaushansky et al. Mol Biosys 2008 / Kaushansky et al. Chem and Biol 2008
  Kd: 1.03 µM
Protein SYK-C, ref Jones et al. 2006 / Kaushansky et al. Mol Biosys 2008 / Kaushansky et al. Chem and Biol 2008
  Kd: 0.87 µM
[16]
  Kd: 1.28 µM
Protein TNS3, ref Jones et al. 2006 / Kaushansky et al. Mol Biosys 2008 / Kaushansky et al. Chem and Biol 2008
  Kd: 0.74 µM
[17]
  Kd: 0.33 µM
Protein VAV2, ref Jones et al. 2006 / Kaushansky et al. Mol Biosys 2008 / Kaushansky et al. Chem and Biol 2008
  Kd: 0.22 µM
Protein VAV3, ref Jones et al. 2006 / Kaushansky et al. Mol Biosys 2008 / Kaushansky et al. Chem and Biol 2008
  Kd: 2 µM
[18]
  Kd: 0.1 µM
